Measured values reported in US6914045B2, “Glycopeptide antibiotics” (Wyeth Holdings Corporation, priority 2001, dated 2005).
≈ marks a conversion by molar mass, not a printed value.

Columns and labels:
Experiment in all cases: in vitro antibacterial evaluation, MIC by broth dilution
Format in all cases: cell-based
Streptococcus sp. = conditions: broth dilution, 18 hours at 35° C.; for MIC Streptococcus pneumoniae (ATCC 6301): strain ATCC 6301; for MIC Streptococcus pneumoniae (GC 1894): strain GC 1894; for MIC Streptococcus pyogenes (GC 4563): strain GC 4563; for MIC Streptococcus agalactiae (GC 4564): strain GC 4564; for MIC Streptococcus pneumoniae (GC 4565): strain GC 4565
In short: (§1)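 MIC = lowest antibiotic concentration preventing visible growth; inoculum 5×10^5 CFU/mL; drug range 64-0.06 μg/mL; Muller-Hinton II […]; NCCLS M7-A2 guidance.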

Staphylococcus sp. = conditions: broth dilution, 18 hours at 35° C.; for MIC Staphylococcus aureus (ATCC 29213): strain ATCC 29213; for MIC Staphylococcus aureus (GC 1131): strain GC 1131; for MIC Staphylococcus aureus (GC 3051): strain GC 3051; for MIC Staphylococcus aureus (GC 3053): strain GC 3053; for MIC Staphylococcus aureus (GC 4541): strain GC 4541; for MIC Staphylococcus aureus (GC 4542): strain GC 4542; for MIC Staphylococcus aureus-SMITH (GC 4543): strain GC 4543; for MIC Staphylococcus aureus (GC 4544): strain GC 4544; for MIC Staphylococcus aureus (GC 4545): strain GC 4545; for MIC Staphylococcus haemolyticus (GC 4546): strain GC 4546; for MIC Coagulase Negative Staphylococcus (GC 4547): strain GC 4547; for MIC Coagulase Negative Staphylococcus (GC 4548): strain GC 4548; for MIC Coagulase Negative Staphylococcus (GC 4549): strain GC 4549; for MIC Coagulase Negative Staphylococcus (GC 4551): strain GC 4551; for MIC Coagulase Negative Staphylococcus (GC 6257): strain GC 6257
In short: as §1

Enterococcus sp. = conditions: broth dilution, 18 hours at 35° C.; for MIC Enterococcus faecalis (ATCC 29212): strain ATCC 29212; for MIC Enterococcus faecalis (GC 2242): strain GC 2242; for MIC Enterococcus faecium (GC 2243): strain GC 2243; for MIC Enterococcus faecalis (GC 2691): strain GC 2691; for MIC Enterococcus faecalis (GC 3059): strain GC 3059; for MIC Enterococcus faecalis (GC 4552): strain GC 4552; for MIC Enterococcus faecalis (GC 4553): strain GC 4553; for MIC Enterococcus faecalis (GC 4554): strain GC 4554; for MIC Enterococcus faecium (GC 4556): strain GC 4556; for MIC Enterococcus faecium (GC 4557): strain GC 4557; for MIC Enterococcus avium (GC 4558): strain GC 4558; for MIC Enterococcus faecalis (GC 6189): strain GC 6189
In short: as §1

Escherichia coli = conditions: broth dilution, 18 hours at 35° C.; for MIC Escherichia coli (ATCC 25922): strain ATCC 25922; for MIC Escherichia coli (GC 4559): strain GC 4559; for MIC Escherichia coli (GC 4560): strain GC 4560
In short: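 Broth dilution MIC per NCCLS M7-A2 in Mueller-Hinton II medium, inoculum 5×10^5 CFU/mL, antibiotic range 64-0.06 μg/mL. MIC taken as lowest concentration inhibiting growth.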

| SMILES | MIC Streptococcus pneumoniae (ATCC 6301) (Streptococcus sp.) [mg/L] | MIC Streptococcus pneumoniae (GC 1894) (Streptococcus sp.) [mg/L] | MIC Streptococcus pyogenes (GC 4563) (Streptococcus sp.) [mg/L] | MIC Streptococcus agalactiae (GC 4564) (Streptococcus sp.) [mg/L] | MIC Streptococcus pneumoniae (GC 4565) (Streptococcus sp.) [mg/L] | MIC Staphylococcus aureus (ATCC 29213) (Staphylococcus sp.) [mg/L] | MIC Staphylococcus aureus (GC 1131) (Staphylococcus sp.) [mg/L] | MIC Staphylococcus aureus (GC 3051) (Staphylococcus sp.) [mg/L] | MIC Staphylococcus aureus (GC 3053) (Staphylococcus sp.) [mg/L] | MIC Staphylococcus aureus (GC 4541) (Staphylococcus sp.) [mg/L] | MIC Staphylococcus aureus (GC 4542) (Staphylococcus sp.) [mg/L] | MIC Staphylococcus aureus-SMITH (GC 4543) (Staphylococcus sp.) [mg/L] | MIC Staphylococcus aureus (GC 4544) (Staphylococcus sp.) [mg/L] | MIC Staphylococcus aureus (GC 4545) (Staphylococcus sp.) [mg/L] | MIC Staphylococcus haemolyticus (GC 4546) (Staphylococcus sp.) [mg/L] | MIC Coagulase Negative Staphylococcus (GC 4547) (Staphylococcus sp.) [mg/L] | MIC Coagulase Negative Staphylococcus (GC 4548) (Staphylococcus sp.) [mg/L] | MIC Coagulase Negative Staphylococcus (GC 4549) (Staphylococcus sp.) [mg/L] | MIC Coagulase Negative Staphylococcus (GC 4551) (Staphylococcus sp.) [mg/L] | MIC Coagulase Negative Staphylococcus (GC 6257) (Staphylococcus sp.) [mg/L] | other results |
| --- | --- | --- | --- | --- | --- | --- | --- | --- | --- | --- | --- | --- | --- | --- | --- | --- | --- | --- | --- | --- | --- |
| CC(c1ccccc1)C1NC(=O)CNC(=O)C(CO)NC(=O)C(C(O)C2CNC(=N)N2C2OC(CO)C(O)C(O)C2O)NC(=O)C(C(O)C2CNC(=N)N2)NC(=O)C(Cc2ccc3oc(C=C(c4ccccc4)c4ccccc4)nc3c2)NC1=O (stereo not drawn) [Example 39, Cyclo[3-[2-(2,2-diphenylethenyl)-1,3-benzoxazol-5-yl]alanyl-3-(2-iminoimidazolidin-4-yl)seryl-3-(3-hexopyranosyl-2-iminoimidazolidin-4-yl)serylserylglycyl-β-methylphenylalanyl]] | 8 (≈ 6.81 µM) | 8 (≈ 6.81 µM) | 4 (≈ 3.41 µM) | 16 (≈ 13.6 µM) | 16 (≈ 13.6 µM) | 16 (≈ 13.6 µM) | 16 (≈ 13.6 µM) | 16 (≈ 13.6 µM) | 8 (≈ 6.81 µM) | 16 (≈ 13.6 µM) | 16 (≈ 13.6 µM) | 16 (≈ 13.6 µM) | 16 (≈ 13.6 µM) | 16 (≈ 13.6 µM) | 8 (≈ 6.81 µM) | 8 (≈ 6.81 µM) | 8 (≈ 6.81 µM) | 4 (≈ 3.41 µM) | 8 (≈ 6.81 µM) | 4 (≈ 3.41 µM) | MIC Enterococcus faecalis (ATCC 29212) (Enterococcus sp.): 16 mg/L (≈ 13.6 µM); MIC Enterococcus faecalis (GC 2242) (Enterococcus sp.): 16 mg/L (≈ 13.6 µM); MIC Enterococcus faecium (GC 2243) (Enterococcus sp.): 8 mg/L (≈ 6.81 µM); MIC Enterococcus faecalis (GC 2691) (Enterococcus sp.): 16 mg/L (≈ 13.6 µM); MIC Enterococcus faecalis (GC 3059) (Enterococcus sp.): 16 mg/L (≈ 13.6 µM); MIC Enterococcus faecalis (GC 4552) (Enterococcus sp.): 16 mg/L (≈ 13.6 µM); MIC Enterococcus faecalis (GC 4553) (Enterococcus sp.): 8 mg/L (≈ 6.81 µM); MIC Enterococcus faecalis (GC 4554) (Enterococcus sp.): 32 mg/L (≈ 27.3 µM); MIC Enterococcus faecium (GC 4556) (Enterococcus sp.): 32 mg/L (≈ 27.3 µM); MIC Enterococcus faecium (GC 4557) (Enterococcus sp.): 8 mg/L (≈ 6.81 µM); MIC Enterococcus avium (GC 4558) (Enterococcus sp.): 8 mg/L (≈ 6.81 µM); MIC Enterococcus faecalis (GC 6189) (Enterococcus sp.): 16 mg/L (≈ 13.6 µM); MIC Escherichia coli (ATCC 25922) (Escherichia coli): 128 mg/L (≈ 109 µM); MIC Escherichia coli (GC 4559) (Escherichia coli): 128 mg/L (≈ 109 µM); MIC Escherichia coli (GC 4560) (Escherichia coli): 16 mg/L (≈ 13.6 µM) |
| CC(c1ccccc1)C1NC(=O)CNC(=O)C(CO)NC(=O)C(C(O)C2CNC(=N)N2C2OC(CO)C(O)C(O)C2O)NC(=O)C(C(O)C2CNC(=N)N2)NC(=O)C(Cc2ccc3oc(-c4ccc(C(C)(C)C)cc4)nc3c2)NC1=O (stereo not drawn) [Example 32, Cyclo[3-[2-(4-tert-butylphenyl)-1,3-benzoxazol-5-yl]alanyl-3-(2-iminoimidazolidin-4-yl)seryl-3-(3-hexopyranosyl-2-iminoimidazolidin-4-yl)serylserylglycyl-β-methylphenylalanyl]] | 16 (≈ 14.2 µM) | 16 (≈ 14.2 µM) | 8 (≈ 7.09 µM) | 16 (≈ 14.2 µM) | 16 (≈ 14.2 µM) | 4 (≈ 3.55 µM) | 2 (≈ 1.77 µM) | 2 (≈ 1.77 µM) | 4 (≈ 3.55 µM) | 2 (≈ 1.77 µM) | 2 (≈ 1.77 µM) | 2 (≈ 1.77 µM) | 2 (≈ 1.77 µM) | 2 (≈ 1.77 µM) | 2 (≈ 1.77 µM) | 2 (≈ 1.77 µM) | 1 (≈ 0.886 µM) | 2 (≈ 1.77 µM) | 4 (≈ 3.55 µM) | 2 (≈ 1.77 µM) | MIC Enterococcus faecalis (ATCC 29212) (Enterococcus sp.): 8 mg/L (≈ 7.09 µM); MIC Enterococcus faecalis (GC 2242) (Enterococcus sp.): 4 mg/L (≈ 3.55 µM); MIC Enterococcus faecium (GC 2243) (Enterococcus sp.): 4 mg/L (≈ 3.55 µM); MIC Enterococcus faecalis (GC 2691) (Enterococcus sp.): 8 mg/L (≈ 7.09 µM); MIC Enterococcus faecalis (GC 3059) (Enterococcus sp.): 8 mg/L (≈ 7.09 µM); MIC Enterococcus faecalis (GC 4552) (Enterococcus sp.): 8 mg/L (≈ 7.09 µM); MIC Enterococcus faecalis (GC 4553) (Enterococcus sp.): 8 mg/L (≈ 7.09 µM); MIC Enterococcus faecalis (GC 4554) (Enterococcus sp.): 4 mg/L (≈ 3.55 µM); MIC Enterococcus faecium (GC 4556) (Enterococcus sp.): 8 mg/L (≈ 7.09 µM); MIC Enterococcus faecium (GC 4557) (Enterococcus sp.): 2 mg/L (≈ 1.77 µM); MIC Enterococcus avium (GC 4558) (Enterococcus sp.): 4 mg/L (≈ 3.55 µM); MIC Enterococcus faecalis (GC 6189) (Enterococcus sp.): 4 mg/L (≈ 3.55 µM); MIC Escherichia coli (ATCC 25922) (Escherichia coli): 16 mg/L (≈ 14.2 µM); MIC Escherichia coli (GC 4559) (Escherichia coli): 16 mg/L (≈ 14.2 µM); MIC Escherichia coli (GC 4560) (Escherichia coli): 4 mg/L (≈ 3.55 µM) |
